Measurements from publication PMC10144566, “Pharmacokinetic Profile Evaluation of Novel Combretastatin Derivative, LASSBio-1920, as a Promising Colorectal Anticancer Agent” (Pharmaceutics, 2023).
pIC50: −log10 of the molar value. Read-outs that look alike come from different tables or passages of the source. Values belong to the molecule of their own block, whether it stands above or below them.

Tests used:
SF-295, glioblastoma = experiment: MTT cytotoxicity assay, SF-295; conditions: Homo sapiens, SF-295, 72 h, read-out: IC50 (95% CI) SF-295
Method: (§1) The cytotoxicity of the compounds was determined using the MTT assay [13]. Cells were seeded in 96-well plates as follows: 0.7 × 10^5 cells/well for adherent cancer cells, 0.3 × 10^5 cells/well for suspended cancer cells, and 0.2 × 10^5 cells/well for HPBMCs. […] The control group was treated with the vehicle. […] After incubation, the supernatant was decanted and replaced with fresh medium containing MTT (0.5 mg/mL).

[1] = tested on: H-1975, non-small cell lung adenocarcinoma; experiment: MTT cytotoxicity assay, H-1975; conditions: Homo sapiens, NCI-H1975, 72 h, read-out: IC50 (95% CI) H-1975
Method: as §1

MCF-7 = tested on: MCF-7; design: method as in PMID 23459143; conditions: 24 h incubation; cited from earlier work
N-87, gastric carcinoma = experiment: MTT cytotoxicity assay, N-87; conditions: Homo sapiens, 72 h, read-out: IC50 (95% CI) N-87
Method: as §1

[2] = tested on: PC-9, lung adenocarcinoma (overexpressed EGFR with L858R mutation); experiment: MTT cytotoxicity assay, PC-9; conditions: for SI HPBMC/PC-9: IC50 for HPBMC/IC50 for the tumor cell line
Method: as §1

[3] = tested on: PC-3, prostate adenocarcinoma; experiment: MTT cytotoxicity assay, PC-3; conditions: Homo sapiens, 72 h, read-out: IC50 (95% CI) PC-3
Method: as §1

MDA -MB231 = tested on: MDA -MB231; design: method as in PMID 23459143; conditions: 24 h incubation; cited from earlier work
[4] = tested on: HCT-116 human colorectal cancer cells (colon carcinoma); experiment: MTT cytotoxicity assay, HCT-116; conditions: for pIC50: Homo sapiens; for SI HPBMC/HCT-116: IC50 for HPBMC/IC50 for the tumor cell line, 72 h
Method: as §1

[5] = tested on: HPBMC, human peripheral blood mononuclear cells; experiment: MTT cytotoxicity assay, HPBMC; assay type: cell-based; conditions: PBMC, 72 h incubation, read-out: IC50 (95% CI) HPBMC
Method: Heparinized blood was collected from healthy, non-smoking donors who had not taken any drugs during the 15 days prior to sampling. Human peripheral blood mononuclear cells (HPBMC) were isolated by a standard density-gradient centrifugation method over Ficoll-Hypaque® media (Merck-Sigma-Aldrich, St. Louis, MO, USA). HPBMC were washed and resuspended in RPMI-1640 medium supplemented with 20% fetal bovine serum, 2 mM glutamine, 100 U/mL penicillin, and 100 µg/mL streptomycin at 37 °C with 5% CO2. Phytohemagglutinin (3%) was added at the beginning of the culture.
The cytotoxicity of the compounds was determined using the MTT assay. Cells were seeded in 96-well plates as follows: 0.7 × 10^5 cells/well for adherent cancer cells, 0.3 × 10^5 cells/well for suspended cancer cells, and 0.2 × 10^5 cells/well for HPBMCs. The treatments were dissolved in DMSO and added to each well using an automated liquid handler for high-throughput screening (Biomek 3000—Beckman Coulter, Inc., Fullerton, CA, USA) and incubated for either 24, 48, and 72 h. The control group was treated with the vehicle. […] After incubation, the supernatant was decanted and replaced with fresh medium containing MTT (0.5 mg/mL). Three hours later, the MTT’s formazan product was dissolved in 150 µL of pure DMSO, and absorbance was measured at 595 nm (DTX 880 Multimode Detector, Beckman Coulter, Inc., Pasadena, CA, USA).
Data were presented as mean ± standard error of the mean (SEM) from three independent experiments performed in triplicate, calculated using Prism 8.0 (GraphPad/Intuitive Software for Science, San Diego, CA, USA). The IC50 of the compounds was obtained using a non-linear regression of the cytotoxicity curves.

PAMPA-BBB permeability = assay type: in vitro ADME; conditions: for Pe1 (Experimental): replicate 1; for Pe2 (Experimental): replicate 2; for Papp: PAMPA
Method: (§2) For this, two 96-well plates were placed one above the other, and between them, an artificial hydrophobic polyvinylidene fluoride (PVDF) membrane, which was impregnated with a lipid solution. The top plate works as the donor compartment and the bottom one as the receiver compartment.
Parallel artificial membrane permeation assay for the blood–brain barrier (PAMPA-BBB): It was performed according to the previously reported [26] method established by Lu and coworkers [27].

[6] = design: method as in Literature (reference not given); conditions: absorbed fraction of PAMPA-GIT controls; ref Literature (reference not given); cited from earlier work
PAMPA-GIT permeability = assay type: in vitro ADME; conditions: for Papp at 5 h, 0.5 mM: PAMPA-GIT, room temperature, read-out: Pe (Experimental); for Fa%: PAMPA-GIT predicted absorbed fraction, 0–30% low, 30–69% medium, 70–100% high absorption
Excerpt: as §2
Parallel artificial membrane permeation assay for gastrointestinal tract (GIT-PAMPA): 1% (w/v) phosphatidylcholine was mixed with dodecane as a lipid solution to impregnate the PVDF membrane between the donor and receiver plates to stimulate intestinal permeability. […] A total of 180 µL of the mixture of PBS and DMSO (v/v 95:5) was added to the recipient plate, and 180 µL of the test solution was added to the donor plate. Immediately and carefully, the donor plate was placed above the receiver plate and incubated for 5 h at room temperature. The solution captured on the receptor plate was removed and subsequently analyzed by a UV detector (SpectraMax 5®—Molecular Devices, Sao Jose, CA, USA). The experiments were performed in quadruplicate.

MDA-MB435 = tested on: MDA-MB435; design: method as in PMID 16722619, PMID 21488686; conditions: lowest IC50 value among cancer cell lines; cited from earlier work
[7] = Homo sapiens, 72 h, read-out: IC50 (95% CI) PC-9
[8] = HCT-116, 72 h, read-out: IC50 (95% CI) HCT-116

SMILES: COc1ccc(/C=C\c2cc(OC)c(OC)c(OC)c2)cc1O [CA4, Combretastatin A-4]
pIC50 (SF-295, glioblastoma): 8.10 | pIC50 [1]: 7.46 | pIC50 (MCF-7): 8.00 | pIC50 (N-87, gastric carcinoma): 5.48 | pIC50 ([2]; Homo sapiens, 24 h, read-out: IC50 (95% CI) PC-9 24 h): 5.59 | pIC50 ([2]; Homo sapiens, 48 h, read-out: IC50 (95% CI) PC-9 48 h): 5.86 | pIC50 [2, 7]: 6.96 | pIC50 ([2]; Homo sapiens, 72 h, read-out: IC50 (95% CI) PC-9 72 h): 6.96 | SI HPBMC/PC-9 ([2]; 72 h): 0.043 | pIC50 [3]: 8.10 | pIC50 (MDA -MB231): 6.96 | pIC50 ([4]; HCT-116, 48 h, read-out: IC50 (95% CI) HCT-116 48 h): 6.70 | pIC50 [4, 8]: 8.68 | pIC50 ([4]; HCT-116, 72 h, read-out: IC50 (95% CI) HCT-116 72 h): 8.68 | SI HPBMC/HCT-116 [4]: 2.24 | pIC50 [5]: 8.33

SMILES: Cn1c(=O)c2c(ncn2C)n(C)c1=O [Caffeine]
Pe1 (Experimental) (PAMPA-BBB permeability; PAMPA-BBB): 0.36 10–6 cm/s | Pe2 (Experimental) (PAMPA-BBB permeability; PAMPA-BBB): −0.10 10–6 cm/s

SMILES: CO/N=C(\C(=O)N[C@@H]1C(=O)N2C(C(=O)O)=C(CSc3nc(=O)c(=O)[nH]n3C)CS[C@H]12)c1csc(N)n1 [Ceftriaxone]
Fa (Literature) [6]: 1

Papp at 5 h, 0.5 mM (PAMPA-GIT permeability): 26 ×10⁻⁶ cm/s
SMILES: O=c1ccc2ccccc2o1 [Coumarin]

Fa% (PAMPA-GIT permeability): 100.0%
SMILES: O=C(O)Cc1ccccc1Nc1c(Cl)cccc1Cl [Diclofenac]
Fa (Literature) [6]: 100

Papp (PAMPA-BBB permeability; PAMPA-BBB classification: absorbed by the Central Nervous System, read-out: CNS Permeability): < 1.13 ×10⁻⁶ cm/s | Papp (PAMPA-BBB permeability; PAMPA-BBB, mean, read-out: Pe (Experimental Mean)): 0.3 ×10⁻⁶ cm/s | Pe1 (Experimental) (PAMPA-BBB permeability; PAMPA-BBB): 0.48 10–6 cm/s | Pe2 (Experimental) (PAMPA-BBB permeability; PAMPA-BBB): 0.06 10–6 cm/s
SMILES: CCn1cc(C(=O)O)c(=O)c2cc(F)c(N3CCNCC3)nc21 [Enoxacin]

SMILES: COc1cc(C(=O)NN=Cc2ccccc2)cc(OC)c1OC [LASSBio-1586]
pIC50 (SF-295, glioblastoma): 6.59 | pIC50 [1]: 5.55 | pIC50 (N-87, gastric carcinoma): 6.09 | pIC50 [2, 7]: 6.12 | SI HPBMC/PC-9 ([2]; 72 h): 1.8 | pIC50 (MDA-MB435): 7.19 | pIC50 [3]: 6.04 | pIC50 [4, 8]: 6.49 | SI HPBMC/HCT-116 [4]: 4.2 | pIC50 [5]: 5.87

Fa% (PAMPA-GIT permeability): 51.39%
SMILES: CCn1cc(C(=O)O)c(=O)c2cc(F)c(N3CCNCC3)cc21 [Norfloxacin]

SMILES: CCOc1cc2ncc(C#N)c(Nc3ccc(F)c(Cl)c3)c2cc1NC(=O)/C=C/CN(C)C [PELITINIB, Pelitinib]
pIC50 [1]: 5.36 | pIC50 (N-87, gastric carcinoma): 6.48 | pIC50 ([2]; read-out: IC50 (95% CI) PC-9, 72 h incubation, MTT): 6.28

Fa% (PAMPA-GIT permeability): 16.50% | Papp at 5 h, 0.5 mM (PAMPA-GIT permeability): 0.2 ×10⁻⁶ cm/s
SMILES: CNC(=C[N+](=O)[O-])NCCSCc1ccc(CN(C)C)o1 [Ranitidine]

SMILES: CCN(CC)CCNC(=O)c1c(C)[nH]c(/C=C2\C(=O)Nc3ccc(F)cc32)c1C [SUNITINIB, Sunitinib]
pIC50 [1]: 5.35 | pIC50 (N-87, gastric carcinoma): 4.96
